Reference: patent US4368203A, “Antibiotics and derivatives thereof having β-lactamase inhibitory activity and production thereof” (priority 1977, dated 1983)
Converted amounts (≈) assume the structure as drawn. Where two headings read alike, the source gives them in different places. Blank lines part the entries; values can stand above or below the compound they belong to.

Tests used:
[1] = tested on: Proteus sp. P-22; assay: MIC, broth dilution method; conditions: 20 h, read-out: Minimum inhibitory concentration
[2] = tested on: Staphylococcus aureus Bx-1633; assay: MIC, broth dilution method; conditions: BX1633, 20 h, read-out: Minimum inhibitory concentration
[3] = tested on: Enterobacter cloacae E-16; assay: MIC, broth dilution method; format: cell-based; conditions: for MIC: Enterobacter cloacae, read-out: Minimum inhibitory concentration
Experimental: Sodium salt of the antibiotic PS-7 was dissolved and diluted with the BRAIN HEART INFUSION BROTH "Eiken" at a concentration between 5 μg/ml and 100 μg/ml. The solution was further diluted with the same medium to obtain a series of geometric concentrations. To the serial dilutions were added the seed cultures prepared by shaking culture of various test microorganisms shown in Tab. 5 in the BRAIN HEART INFUSION GROTH at 28° C. for 18 hours, the final cell count being about 1×10^5 /ml. […] The lowest concentration at which no cell growth was observed was the minimum inhibitory concentration of the antibiotic PS-7 on the test microorganism. […] The minimum inhibitory concentrations on test strains were determined in the same manner as mentioned above.

[4] = tested on: Streptococcus pyogenes NY-5; assay: MIC, broth dilution method; conditions: for MIC: Streptococcus pyogenes, NY5, 20 h, read-out: Minimum inhibitory concentration
[5] = tested on: Proteus vulgaris P-5; assay: MIC, broth dilution method; conditions: for MIC: Proteus vulgaris, P5, 20 h, read-out: Minimum inhibitory concentration
[6] = tested on: Providencia sp. P-8; assay: MIC, broth dilution method; conditions: SP.P8, 20 h, read-out: Minimum inhibitory concentration
[7] = tested on: Proteus mirabilis P-6; assay: MIC, broth dilution method; conditions: P6, 20 h, read-out: Minimum inhibitory concentration
[8] = tested on: Klebsiella pneumoniae K-2; assay: MIC, broth dilution method; conditions: for MIC: Klebsiella pneumoniae, K2, 20 h, read-out: Minimum inhibitory concentration
[9] = tested on: Alcaligenes faecalis B-326; assay: MIC, broth dilution method; format: cell-based; conditions: for MIC: Alcaligenes faecalis, read-out: Minimum inhibitory concentration
Experimental: (§1) Sodium salt of the antibiotic PS-7 was dissolved and diluted with the BRAIN HEART INFUSION BROTH "Eiken" at a concentration between 5 μg/ml and 100 μg/ml. The solution was further diluted with the same medium to obtain a series of geometric concentrations. To the serial dilutions were added the seed cultures prepared by shaking culture of various test microorganisms shown in Tab. 5 in the BRAIN HEART INFUSION GROTH at 28° C. for 18 hours, the final cell count being about 1×10^5 /ml. […] The lowest concentration at which no cell growth was observed was the minimum inhibitory concentration of the antibiotic PS-7 on the test microorganism. […] . The minimum inhibitory concentrations on test strains were determined in the same manner as mentioned above. […] For the comparison, the results on the known antibiotics Cephazolin and Cefoxitin are also given in the same table.

[10] = tested on: Citrobacter freundii E-9; assay: MIC, broth dilution method; format: cell-based; conditions: for MIC: Citrobacter freundii, read-out: Minimum inhibitory concentration
Experimental: as §1

[11] = tested on: Diplococcus pneumoniae Type III; assay: MIC, broth dilution method; format: cell-based; conditions: Streptococcus pneumoniae, read-out: Minimum inhibitory concentration
Experimental: as §1

[12] = tested on: Staphylococcus aureus FDA 209P; assay: MIC, broth dilution method; format: cell-based; conditions: FDA209P, read-out: Minimum inhibitory concentration
Experimental: as §1

[13] = tested on: Enterobacter aerogenes E-19; assay: MIC, broth dilution method; conditions: Klebsiella aerogenes, E19, 20 h, read-out: Minimum inhibitory concentration
[14] = tested on: Staphylococcus aureus FDA 209P; assay: MIC, broth dilution method; format: cell-based; conditions: for MIC: Staphylococcus aureus, FDA209P, Table 7, no unit in the head, read-out: Minimum inhibitory concentration
[15] = tested on: Enterobacter sp. E-8; assay: MIC, broth dilution method; conditions: SP.E8, 20 h, read-out: Minimum inhibitory concentration
[16] = tested on: Staphylococcus aureus Rassell; assay: MIC, broth dilution method; conditions: 20 h, read-out: Minimum inhibitory concentration
[17] = tested on: Bacillus subtilis ATCC 6633; assay: MIC, broth dilution method; conditions: ATCC6633, 20 h, read-out: Minimum inhibitory concentration
[18] = tested on: Proteus rettgeri P-7; assay: MIC, broth dilution method; conditions: Providencia rettgeri, P7, 20 h, read-out: Minimum inhibitory concentration
[19] = tested on: Serratia marcescens S-18; assay: MIC, broth dilution method; conditions: S18, 20 h, read-out: Minimum inhibitory concentration
[20] = tested on: Diplococcus pneumoniae Type III; assay: MIC, broth dilution method; format: cell-based
[21] = tested on: Serratia marcescens S-18; assay: Potentiating and synergistic effect, pulp disc inhibition zone on agar plate; format: cell-based
Experimental: (§2) 10 ml of 2.5 folds diluted nutrient agar (pH 7.0) containing 50 μg/ml of penicillin G or cephaloridine was seeded with the β-lactamase producing and β-lactam-resistant microorganisms and poured in a 9 cm Petri dish to provide the bio-assay agar plate. On this assay plate, 8 mm of pulp discs each containing 20 μl of antibiotic PS-6 solution at the concentration of 240 μg/ml were placed and incubated at 35° C. for 18 hours before reading the inhibition zones. A control assay plate was similarly prepared without penicillin G or cephaloridine. As reference antibiotics, 10,000 μg/ml of penicillin G or 20 μl of cephaloridine were disc-assayed under the same conditions.

[22] = tested on: Citrobacter freundii E-9; assay: as above; format: cell-based
Experimental: as §2

[23] = tested on: β-lactamase-producing, β-lactam-resistant bacteria; assay: Increase of the antibiotic activity of other antibiotics (summary in words); format: cell-based; conditions: β-lactamase-producing bacteria such as Proteus vulgaris, Serratia marcescens
Experimental: as §2, with “On this assay plate, 8 mm of pulp discs each containing 20 μl of antibiotic PS-6 solution at the concentration of 240 μg/ml were placed and incubated at 35° C. for 18 hours before reading the inhibition zones.” left out
(§3) Cepholoridine was added to a 2.5-times diluted nutrient agar, pH 7.0 and the medium was inoculated with a β-lactam-producing strain that produceds β-lactamase. Ten ml of the medium was spread and solidified in a petri dish of 9 cm in diameter to prepare an assay plate. […] Each 20 μl of the solution and its 2- and 4-times diluted solutions was soaked in a pulp disc of 8 mm in diameter. To the surface of the above nutrient agar was placed the pulp disc and the size of the growth inhibitory zone around the disc was examined after incubation at 35° C. for 18 hours. […] In addition, for the comparison, a similar experiment was also performed with a pulp disk soaked with 20 μl of 10,000 μg/ml Penicillin G or Cepholoridine solution in place of the antibiotic PS-7.

[24] = tested on: Proteus vulgaris P-5; assay: Potentiating and synergistic effect, pulp disc inhibition zone on agar plate; format: cell-based
Experimental: as §2, with “On this assay plate, 8 mm of pulp discs each containing 20 μl of antibiotic PS-6 solution at the concentration of 240 μg/ml were placed and incubated at 35° C. for 18 hours before reading the inhibition zones.” left out
as §3

[25] = E16, Table 7, no unit in the head, lactamase-producing strain
[26] = B326, Table 7, no unit in the head
[27] = E9, Table 7, no unit in the head, lactamase-producing strain
[28] = Table 9, lactamase producing organism
[29] = Table 9, 10% of horse blood in the medium
[30] = Table 6, agar containing 50 μg/ml of cephaloridine, disc 20 μl, PS-6 240 μg/ml, reference antibiotics 10,000 μg/ml
[31] = Table 6, agar containing 50 μg/ml of penicillin G, disc 20 μl, PS-6 240 μg/ml, reference antibiotics 10,000 μg/ml

Structure (SMILES): Cc1nnc(SCC2=C(C(=O)O)N3C(=O)[C@@H](NC(=O)Cn4cnnn4)[C@H]3SC2)s1 [Cefazorin]
- MIC [1]: > 100 µg/mL
- MIC [2]: 0.5 µg/mL (≈ 1.1 µM)
- MIC [3, 25]: > 100 µg/mL
- MIC [4]: 0.25 µg/mL (≈ 0.55 µM)
- MIC [5]: > 100 µg/mL
- MIC [6]: 50 µg/mL (≈ 110 µM)
- MIC [7]: 6.25 µg/mL (≈ 13.8 µM)
- MIC [8]: 6.25 µg/mL (≈ 13.8 µM)
- MIC ([9]; B326, Table 5, 35° C. 20 hours): 6.25 µg/mL (≈ 13.8 µM)
- MIC [9, 26]: 6.25 µg/mL (≈ 13.8 µM)
- MIC ([10]; E9, 20 h): > 100 µg/mL
- MIC [10, 27]: > 100 µg/mL
- MIC ([11]; 20 h): 0.125 µg/mL (≈ 0.275 µM)
- MIC [11]: 0.125 µg/mL (≈ 0.275 µM)
- MIC ([12]; Table 5, 35° C. 20 hours): 0.25 µg/mL (≈ 0.55 µM)
- MIC [13]: > 100 µg/mL
- MIC [14]: 0.25 µg/mL (≈ 0.55 µM)
- MIC [15]: 3.13 µg/mL (≈ 6.89 µM)
- MIC [16]: 1 µg/mL (≈ 2.2 µM)
- MIC [17]: 0.5 µg/mL (≈ 1.1 µM)
- MIC [18]: 25 µg/mL (≈ 55 µM)
- MIC [19]: > 100 µg/mL

- MIC [2]: 2.5 µg/mL (≈ 5.85 µM)
- MIC ([3]; E16, 20 h, Table 5, betalactamase producer): > 100 µg/mL
- MIC [3, 25]: > 100 µg/mL
- MIC [4]: 1.25 µg/mL (≈ 2.92 µM)
- MIC [8]: 6.25 µg/mL (≈ 14.6 µM)
- MIC ([9]; B326, Table 5, 35° C. 20 hours): 1.56 µg/mL (≈ 3.65 µM)
- MIC [9, 26]: 1.56 µg/mL (≈ 3.65 µM)
- MIC ([10]; E9, 20 h, Table 5, betalactamase producer): > 100 µg/mL
- MIC [10, 27]: > 100 µg/mL
- MIC ([11]; 20 h, Table 5, 10% horse blood supplemented into the medium): 2.5 µg/mL (≈ 5.85 µM)
- MIC ([12]; Table 5, 35° C. 20 hours): 2.5 µg/mL (≈ 5.85 µM)
- MIC [13]: > 100 µg/mL
- MIC [14]: 2.5 µg/mL (≈ 5.85 µM)
- MIC [15]: 12.5 µg/mL (≈ 29.2 µM)
- MIC [16]: 5 µg/mL (≈ 11.7 µM)
- MIC [17]: 1.25 µg/mL (≈ 2.92 µM)
- MIC ([20]; Streptococcus pneumoniae, Table 7, no unit in the head, horse serum in the medium at 10%, read-out: Minimum inhibitory concentration): 2.5 µg/mL (≈ 5.85 µM)
- MIC [19]: 50 µg/mL (≈ 117 µM)
Structure (SMILES): CO[C@@]1(NC(=O)Cc2cccs2)C(=O)N2C(C(=O)O)=C(COC(N)=O)CS[C@@H]21 [Cefoxitin]

Structure (SMILES): O=C(Cc1cccs1)N[C@@H]1C(=O)N2C(C(=O)[O-])=C(C[n+]3ccccc3)CS[C@H]12 [cephaloridine]
- MIC ([3]; E16, 20 h): > 100 µg/mL
- Minimum inhibitory concentration [3, 28]: > 100 µg/mL
- MIC [4]: 0.01 µg/mL (≈ 0.0241 µM)
- Minimum inhibitory concentration [4, 29]: 0.01 µg/mL (≈ 0.0241 µM)
- MIC [5]: > 100 µg/mL
- Minimum inhibitory concentration [5, 28]: > 100 µg/mL
- zone of inhibition at 240 µg/mL ([21]; Serratia marcescens, S18, 18 h, read-out: Inhibition zone, Control): 11 mm
- Inhibition zone, with cephaloridine [21, 30]: 11.0 mm
- Inhibition zone, with penicillin G [21, 31]: 11.0 mm
- zone of inhibition at 240 µg/mL ([22]; Citrobacter freundii, E9, 18 h, read-out: Inhibition zone, Control): 12 mm
- Inhibition zone, with cephaloridine [22, 30]: 12.0 mm
- Inhibition zone, with penicillin G [22, 31]: 12.0 mm
- MIC [8]: 20 µg/mL (≈ 48.1 µM)
- Minimum inhibitory concentration [8, 28]: 20.0 µg/mL (≈ 48.1 µM)
- MIC ([9]; B326, 20 h): 3.13 µg/mL (≈ 7.53 µM)
- Minimum inhibitory concentration ([9]; Table 9): 3.13 µg/mL (≈ 7.53 µM)
- MIC ([10]; E9, 20 h): > 100 µg/mL
- Minimum inhibitory concentration [10, 28]: > 100 µg/mL
- MIC ([11]; 20 h): 0.01 µg/mL (≈ 0.0241 µM)
- MIC ([12]; 20 h): 0.04 µg/mL (≈ 0.0963 µM)
- Minimum inhibitory concentration ([14]; Table 9, ester dissolved in methanol, final methanol not above 10%): 0.04 µg/mL (≈ 0.0963 µM)
- Synergistic enhancement of the activity of penicillin G or cephaloridine (β-lactam antibiotics) [23]: no synergistic effect
- Synergistic enhancement of the activity of penicillin G or cephaloridine (β-lactam antibiotics) ([23]; listed as Cephaloridine): No enhancement of antimicrobial activity
- zone of inhibition at 10000 µg/mL ([24]; Proteus vulgaris, P5, 18 h, read-out: Diameter of inhibitory zone, No addition): 12 mm
- zone of inhibition at 240 µg/mL ([24]; Proteus vulgaris, P5, 18 h, read-out: Inhibition zone, Control): 12 mm
- Inhibition zone, with cephaloridine [24, 30]: 12.0 mm
- Inhibition zone, with penicillin G [24, 31]: 12.0 mm
- Diameter of inhibitory zone, Cephaloridine-added ([24]; Table 8, comparison disc 20 μl of 10,000 μg/ml, cephaloridine in the agar): 12.0 mm
- Minimum inhibitory concentration [20, 29]: 0.01 µg/mL (≈ 0.0241 µM)
